Assay results from the NIST ThermoML archive (doi:10.1021/je8009336).
Numbers after ± are expanded uncertainties.

How the values were obtained:
[1] = xn = mol fraction of the nth substance listed; details: 313.15 K, 101 kPa, Liquid; for speed of sound: Vibrating Tube Densimeter; for mass density: Vibrating tube method
[2] = refractive index (Na D-line) (dimensionless); xn = mol fraction of the nth substance listed; details: 313.15 K, 101 kPa, Liquid, Standard Abbe refractometry
[3] = Liquid; for mass density: Vibrating tube method; for speed of sound: Vibrating Tube Densimeter
[4] = refractive index (Na D-line) (dimensionless); details: 101.33 kPa, Liquid, Standard Abbe refractometry

C1CCCC1 [cyclopentane] + CCc1ccccc1
Details | mass density, [1] [kg/m3] | refractive index, [2] | speed of sound, [1] [m/s]
x1 = 0.0393 | 845.5 ± 0.2 | 1.48234 ± 0.00068 | 1251.9 ± 2.1
x1 = 0.083 | 841.2 ± 0.2 | 1.47928 ± 0.00068 | 1246.4 ± 2.1
x1 = 0.1874 | 830.5 ± 0.2 | 1.4714 ± 0.00068 | 1232.9 ± 2.1
x1 = 0.2847 | 820 ± 0.3 | 1.46405 ± 0.00068 | 1219.9 ± 2.1
x1 = 0.3689 | 810.5 ± 0.3 | 1.45715 ± 0.00068 | 1209.3 ± 2.1
x1 = 0.541 | 789.9 ± 0.3 | 1.44226 ± 0.00069 | 1186.8 ± 2.2
x1 = 0.6281 | 778.7 ± 0.3 | 1.43421 ± 0.00069 | 1175.5 ± 2.2
x1 = 0.687 | 770.9 ± 0.3 | 1.42853 ± 0.00069 | 1168 ± 2.2
x1 = 0.7988 | 755.3 ± 0.3 | 1.41702 ± 0.0007 | 1154 ± 2.2
x1 = 0.898 | 740.8 ± 0.3 | 1.40651 ± 0.0007 | 1141.9 ± 2.3
x1 = 0.9475 | 733.2 ± 0.3 | 1.40072 ± 0.00071 | 1135.9 ± 2.3
x1 = 1 | 725 ± 0.3 | 1.39456 ± 0.0007 | 1130 ± 2.3

CCc1ccccc1 [ethylbenzene] + C1CCCC1
x2 = 0
Details | mass density [kg/m3] | refractive index | speed of sound [m/s]
[1] | 849.3 ± 0.2 | – | 1257.3 ± 2.1
[2] | – | 1.48538 ± 0.00068 | –

C1CCCC1 [cyclopentane] + Cc1ccccc1
Details | mass density, [1] [kg/m3] | refractive index, [2] | speed of sound, [1] [m/s]
x1 = 0.0418 | 843.6 ± 0.2 | 1.48201 ± 0.00068 | 1235.6 ± 2.1
x1 = 0.0924 | 838 ± 0.2 | 1.47801 ± 0.00068 | 1228.7 ± 2.1
x1 = 0.1907 | 826.8 ± 0.2 | 1.46979 ± 0.00068 | 1215.8 ± 2.1
x1 = 0.2717 | 817.3 ± 0.3 | 1.46313 ± 0.00068 | 1205.2 ± 2.1
x1 = 0.3579 | 807 ± 0.3 | 1.45562 ± 0.00068 | 1194.8 ± 2.1
x1 = 0.4944 | 790.4 ± 0.3 | 1.44336 ± 0.00069 | 1178.6 ± 2.1
x1 = 0.5862 | 778.9 ± 0.3 | 1.43503 ± 0.00069 | 1168.4 ± 2.2
x1 = 0.6895 | 765.8 ± 0.3 | 1.42526 ± 0.00069 | 1157.4 ± 2.2
x1 = 0.7951 | 752.2 ± 0.3 | 1.41512 ± 0.0007 | 1147.3 ± 2.2
x1 = 0.8958 | 738.9 ± 0.3 | 1.40537 ± 0.0007 | 1138.3 ± 2.3
x1 = 0.9456 | 732.3 ± 0.3 | 1.40037 ± 0.0007 | 1134.2 ± 2.3
x1 = 1 | 725 ± 0.3 | 1.39456 ± 0.0007 | 1130 ± 2.3

C1CCCCC1 [cyclohexane]
[3]
Details | mass density, 298.15 K [kg/m3] | mass density, 313.15 K [kg/m3] | speed of sound, 313.15 K [m/s]
101 kPa | – | 759.6 ± 0.2 | 1181.7 ± 2.1
101.33 kPa | 773.8 ± 0.2 | – | –

[4]
Details | refractive index
298.15 K | 1.42353 ± 0.00068
313.15 K | 1.41513 ± 0.00068

CCc1ccccc1 [ethylbenzene] + CC1CCCCC1
x2 = 0
Details | mass density [kg/m3] | refractive index | speed of sound [m/s]
[1] | 849.3 ± 0.2 | – | 1257.3 ± 2.1
[2] | – | 1.48538 ± 0.00068 | –

Cc1ccccc1 [toluene] + C1CCCC1
x2 = 0
Details | mass density [kg/m3] | refractive index | speed of sound [m/s]
[1] | 848.2 ± 0.2 | – | 1240.9 ± 2.1
[2] | – | 1.48509 ± 0.00068 | –

c1ccccc1 [benzene] + CC1CCCCC1
x2 = 0
Details | mass density [kg/m3] | refractive index | speed of sound [m/s]
[1] | 857.5 ± 0.2 | – | 1230.5 ± 2.1
[2] | – | 1.48777 ± 0.00068 | –

C1CCCC1 [cyclopentane]
[3]
Details | mass density, 298.15 K [kg/m3] | mass density, 313.15 K [kg/m3] | speed of sound, 313.15 K [m/s]
101 kPa | – | 725 ± 0.3 | 1130 ± 2.3
101.33 kPa | 740 ± 0.3 | – | –

[4]
Details | refractive index
298.15 K | 1.40342 ± 0.0007
313.15 K | 1.39456 ± 0.0007

CCc1ccccc1 [ethylbenzene] + C1CCCCC1
Details | mass density, [1] [kg/m3] | refractive index, [2] | speed of sound, [1] [m/s]
x2 = 0 | 849.3 ± 0.2 | 1.48538 ± 0.00068 | 1257.3 ± 2.1
x2 = 0.0515 | 844.7 ± 0.2 | 1.4814 ± 0.00068 | 1251.8 ± 2.1
x2 = 0.0976 | 840.5 ± 0.2 | 1.47828 ± 0.00068 | 1247 ± 2.1
x2 = 0.2494 | 826.7 ± 0.2 | 1.46788 ± 0.00068 | 1231.8 ± 2.1
x2 = 0.3647 | 816.2 ± 0.2 | 1.45999 ± 0.00068 | 1221.3 ± 2.1
x2 = 0.3855 | 814.3 ± 0.2 | 1.45831 ± 0.00068 | 1219.3 ± 2.1
x2 = 0.5028 | 803.6 ± 0.2 | 1.45026 ± 0.00068 | 1209.4 ± 2.1
x2 = 0.6009 | 794.6 ± 0.2 | 1.44349 ± 0.00068 | 1201.9 ± 2.1
x2 = 0.7005 | 785.6 ± 0.2 | 1.43614 ± 0.00068 | 1195 ± 2.1
x2 = 0.7976 | 776.9 ± 0.2 | 1.42925 ± 0.00068 | 1189.2 ± 2.1
x2 = 0.9017 | 768 ± 0.2 | 1.42208 ± 0.00068 | 1184.5 ± 2.1
x2 = 0.9504 | 763.8 ± 0.2 | 1.41865 ± 0.00068 | 1182.8 ± 2.1

C1CCCCC1 [cyclohexane] + c1ccccc1
Details | mass density, [1] [kg/m3] | refractive index, [2] | speed of sound, [1] [m/s]
x1 = 0.0819 | 846.2 ± 0.2 | 1.47958 ± 0.00068 | 1218.9 ± 2.1
x1 = 0.1282 | 840.2 ± 0.2 | 1.47489 ± 0.00068 | 1213.2 ± 2.1
x1 = 0.2087 | 830.1 ± 0.2 | 1.46761 ± 0.00068 | 1204.5 ± 2.1
x1 = 0.2898 | 820.5 ± 0.2 | 1.46073 ± 0.00068 | 1197 ± 2.1
x1 = 0.4018 | 808.5 ± 0.2 | 1.45171 ± 0.00068 | 1188.6 ± 2.1
x1 = 0.5047 | 798.3 ± 0.2 | 1.44414 ± 0.00068 | 1183.3 ± 2.1
x1 = 0.6058 | 789.1 ± 0.2 | 1.43724 ± 0.00068 | 1179.8 ± 2.1
x1 = 0.7 | 780.9 ± 0.2 | 1.43118 ± 0.00068 | 1177.7 ± 2.1
x1 = 0.7989 | 773.2 ± 0.2 | 1.42538 ± 0.00068 | 1177.3 ± 2.1
x1 = 0.9059 | 765.7 ± 0.2 | 1.41966 ± 0.00068 | 1178.6 ± 2.1
x1 = 0.9505 | 762.7 ± 0.2 | 1.41753 ± 0.00068 | 1179.7 ± 2.1
x1 = 1 | 759.6 ± 0.2 | 1.41513 ± 0.00068 | 1181.7 ± 2.1

c1ccccc1 [benzene]
[3]
Details | mass density, 298.15 K [kg/m3] | mass density, 313.15 K [kg/m3] | speed of sound, 313.15 K [m/s]
101 kPa | – | 857.5 ± 0.2 | 1230.5 ± 2.1
101.33 kPa | 873.5 ± 0.2 | – | –

[4]
Details | refractive index
298.15 K | 1.49775 ± 0.00068
313.15 K | 1.48777 ± 0.00068

C1CCCCC1 [cyclohexane] + CCc1ccccc1
x1 = 1
Details | mass density [kg/m3] | refractive index | speed of sound [m/s]
[1] | 759.6 ± 0.2 | – | 1181.7 ± 2.1
[2] | – | 1.41513 ± 0.00068 | –

Cc1ccccc1 [toluene] + CC1CCCCC1
x2 = 0
Details | mass density [kg/m3] | refractive index | speed of sound [m/s]
[1] | 848.2 ± 0.2 | – | 1240.9 ± 2.1
[2] | – | 1.48509 ± 0.00068 | –

Cc1ccccc1 [toluene] + C1CCCCC1
x2 = 0
Details | mass density [kg/m3] | refractive index | speed of sound [m/s]
[1] | 848.2 ± 0.2 | – | 1240.9 ± 2.1
[2] | – | 1.48509 ± 0.00068 | –

CCc1ccccc1 [ethylbenzene]
[3]
Details | mass density, 298.15 K [kg/m3] | mass density, 313.15 K [kg/m3] | speed of sound, 313.15 K [m/s]
101 kPa | – | 849.3 ± 0.2 | 1257.3 ± 2.1
101.33 kPa | 862.5 ± 0.2 | – | –

[4]
Details | refractive index
298.15 K | 1.49304 ± 0.00068
313.15 K | 1.48538 ± 0.00068
